Test results as given in ChEMBL document CHEMBL3822383, “Coumarin sulfonamides derivatives as potent and selective COX-2 inhibitors with efficacy in suppressing cancer proliferation and metastasis” (Bioorg Med Chem Lett, 2016).
Calls of active or inactive are those of the source. The rule behind the calls is not given here.

How the values were obtained:
[1] = cells; conditions: Homo sapiens, HEK-293T, 24 h
Description: Antiproliferative activity against human 293T cells after 24 hrs by MTT assay

[2] = cells; conditions: Homo sapiens, L02, 24 h
Description: Antiproliferative activity against human LO2 cells after 24 hrs by MTT assay

[3] = test system: HepG2; test: cells; conditions: Homo sapiens, HepG2, 24 h
Description: Antiproliferative activity against human HepG2 cells after 24 hrs by MTT assay

[4] = test system: HeLa; test: Inhibition of cell adhesion in human HeLa cells assessed as reduction in cell attachment up to 8 uM after 1 hr by MTT assay; assay type: functional, cell-based
[5] = cells; conditions: Mus musculus, B16-F10, 24 h
Description: Antiproliferative activity against mouse B16F10 cells after 24 hrs by MTT assay

[6] = test system: HeLa; test: Inhibition of PGE2 secretion in human HeLa cells at 0.1 uM after 24 hrs by EIA monoclonal assay; assay type: functional, cell-based
[7] = test system: HeLa; test: cells; conditions: Homo sapiens, 24 h
Description: Antiproliferative activity against human HeLa cells after 24 hrs by MTT assay

[8] = test system: A549; test: cells; conditions: Homo sapiens, A549, 24 h
Description: Antiproliferative activity against human A549 cells after 24 hrs by MTT assay

[9] = target: Prostaglandin G/H synthase 1 (Homo sapiens, UniProt P23219); test: Inhibition of human COX1 using arachidonic acid assessed as production of PGF2alpha after 5 mins by ELISA
Sequence of Prostaglandin G/H synthase 1 (P23219 whole entry): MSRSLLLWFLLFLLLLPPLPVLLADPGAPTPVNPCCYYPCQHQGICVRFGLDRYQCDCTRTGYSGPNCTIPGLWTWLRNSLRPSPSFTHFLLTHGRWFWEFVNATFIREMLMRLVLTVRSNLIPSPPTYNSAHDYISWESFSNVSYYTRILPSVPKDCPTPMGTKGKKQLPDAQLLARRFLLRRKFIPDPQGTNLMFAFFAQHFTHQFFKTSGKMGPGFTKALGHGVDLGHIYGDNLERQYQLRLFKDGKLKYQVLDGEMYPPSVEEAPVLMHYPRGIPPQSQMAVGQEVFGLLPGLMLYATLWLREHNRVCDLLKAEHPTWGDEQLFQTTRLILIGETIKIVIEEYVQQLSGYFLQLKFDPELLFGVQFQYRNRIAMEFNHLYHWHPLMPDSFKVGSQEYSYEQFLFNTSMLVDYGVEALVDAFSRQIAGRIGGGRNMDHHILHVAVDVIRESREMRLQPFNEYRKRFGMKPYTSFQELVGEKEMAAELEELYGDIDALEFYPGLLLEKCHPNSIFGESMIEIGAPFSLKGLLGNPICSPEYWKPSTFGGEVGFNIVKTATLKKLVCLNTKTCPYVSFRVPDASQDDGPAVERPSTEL

Row | SMILES | IC50 [1] | IC50 [3] | IC50 [5] | IC50 [7] | IC50 [8] | IC50 [9] | IC50 [2] | inhibition [4] | inhibition [6]
1 | Cc1ccc(-c2cc(C(F)(F)F)nn2-c2ccc(S(N)(=O)=O)cc2)cc1 [CELECOXIB] | 95.3 µM | 10 µM | 14.4 µM | 7.79 µM | 15.6 µM |  | 98.2 µM | inactive | Active
2 | COc1ccc(-c2cc(C(=O)N/N=C/c3c(Cl)c4ccccc4oc3=O)nn2-c2ccc(S(N)(=O)=O)cc2)cc1OC | 175 µM | 21.2 µM | 19.8 µM | 13.1 µM | 40.1 µM | 69.3 µM | 187 µM |  | 
3 | NS(=O)(=O)c1ccc(-n2nc(C(=O)N/N=C/c3c(Cl)c4ccccc4oc3=O)cc2-c2ccccc2O)cc1 | > 300 µM | 19.9 µM | 20.9 µM | 11.7 µM | 17.2 µM | > 100 µM | 159 µM |  | 
4 | NS(=O)(=O)c1ccc(-n2nc(C(=O)N/N=C/c3c(Cl)c4ccccc4oc3=O)cc2-c2ccc(O)cc2)cc1 | 139 µM | 18.2 µM | 21.3 µM | 12.4 µM | 26.4 µM | > 100 µM | 163 µM |  | 
5 | CCOc1ccc(-c2cc(C(=O)N/N=C/c3c(Cl)c4ccccc4oc3=O)nn2-c2ccc(S(N)(=O)=O)cc2)cc1 |  |  |  |  |  | 78.5 µM |  |  | 
6 | NS(=O)(=O)c1ccc(-n2nc(C(=O)N/N=C/c3c(Cl)c4ccccc4oc3=O)cc2-c2ccccc2F)cc1 | 108 µM | 5.94 µM | 6.41 µM | 2.85 µM | 14.3 µM | > 100 µM | 148 µM |  | 
7 | COc1ccc(-c2cc(C(=O)N/N=C/c3c(Cl)c4ccccc4oc3=O)nn2-c2ccc(S(N)(=O)=O)cc2)cc1 | > 300 µM | 14.7 µM | 7.31 µM | 12 µM | 31.5 µM | 84.3 µM | > 300 µM |  | 
8 | NS(=O)(=O)c1ccc(-n2nc(C(=O)N/N=C/c3c(Cl)c4ccccc4oc3=O)cc2-c2ccc(Cl)c(Cl)c2)cc1 | 153 µM | 5.12 µM | 7.45 µM | 4.91 µM | 23.5 µM | 96.6 µM | > 300 µM |  | 
9 | NS(=O)(=O)c1ccc(-n2nc(C(=O)N/N=C/c3c(Cl)c4ccccc4oc3=O)cc2-c2ccccc2Cl)cc1 | 254 µM | 6.1 µM | 9.12 µM | 5.09 µM | 12.3 µM | 86.2 µM | 214 µM |  | 
10 | NS(=O)(=O)c1ccc(-n2nc(C(=O)N/N=C/c3c(Cl)c4ccccc4oc3=O)cc2-c2ccc(F)cc2)cc1 | 181 µM | 3.53 µM | 9.76 µM | 0.94 µM | 11.2 µM | 53.4 µM | 192 µM |  | 
11 | NS(=O)(=O)c1ccc(-n2nc(C(=O)N/N=C/c3c(Cl)c4ccccc4oc3=O)cc2-c2ccc([N+](=O)[O-])cc2)cc1 | 113 µM | 1.63 µM | 4.04 µM | 0.52 µM | 3.85 µM | 42.2 µM | 133 µM |  | 
12 | Cc1ccc(-c2cc(C(=O)N/N=C/c3c(Cl)c4ccccc4oc3=O)nn2-c2ccc(S(N)(=O)=O)cc2)c(C)c1 | 175 µM | 6.7 µM | 4.68 µM | 7.95 µM | 28.5 µM | 39.5 µM | 206 µM |  | 
13 | COc1cc(-c2cc(C(=O)N/N=C/c3c(Cl)c4ccccc4oc3=O)nn2-c2ccc(S(N)(=O)=O)cc2)cc(OC)c1OC | 101 µM | 20 µM | 26.2 µM | 16.2 µM | 26.1 µM | 49.8 µM | 116 µM |  | 

Continued, in another order:

Row | IC50 [1] | IC50 [3] | IC50 [5] | IC50 [7] | IC50 [8] | IC50 [9] | SMILES | IC50 [2] | inhibition [4] | inhibition [6]
14 | 155 µM | 4.74 µM | 8.79 µM | 3.43 µM | 16.2 µM | 74.3 µM | NS(=O)(=O)c1ccc(-n2nc(C(=O)N/N=C/c3c(Cl)c4ccccc4oc3=O)cc2-c2cccc(F)c2)cc1 | 206 µM |  | 
15 | 107 µM | 15.7 µM | 9.58 µM | 7.58 µM | 22.4 µM | > 100 µM | COc1cccc(-c2cc(C(=O)N/N=C/c3c(Cl)c4ccccc4oc3=O)nn2-c2ccc(S(N)(=O)=O)cc2)c1 | 105 µM |  | 
16 | > 300 µM | 5.98 µM | 5.28 µM | 11.1 µM | 20.3 µM | 48.2 µM | Cc1cccc(-c2cc(C(=O)N/N=C/c3c(Cl)c4ccccc4oc3=O)nn2-c2ccc(S(N)(=O)=O)cc2)c1 | 199 µM |  | 
17 | 180 µM | 5.76 µM | 9.53 µM | 9.86 µM | 33.5 µM | > 100 µM | NS(=O)(=O)c1ccc(-n2nc(C(=O)N/N=C/c3c(Cl)c4ccccc4oc3=O)cc2-c2ccccc2)cc1 | 183 µM |  | 
18 | 189 µM | 11.3 µM | 6.22 µM | 8.81 µM | 22.1 µM | 89.5 µM | Cc1ccc(-c2cc(C(=O)N/N=C/c3c(Cl)c4ccccc4oc3=O)nn2-c2ccc(S(N)(=O)=O)cc2)cc1 | > 300 µM |  | 
19 | 233 µM | 4.41 µM | 6.93 µM | 6.92 µM | 24.2 µM | > 100 µM | Cc1ccc(-c2cc(C(=O)N/N=C/c3c(Cl)c4ccccc4oc3=O)nn2-c2ccc(S(N)(=O)=O)cc2)cc1C | > 300 µM |  | 
20 | 152 µM | 6.75 µM | 15.6 µM | 5.46 µM | 14.7 µM | > 100 µM | NS(=O)(=O)c1ccc(-n2nc(C(=O)N/N=C/c3c(Cl)c4ccccc4oc3=O)cc2-c2cccc(Cl)c2)cc1 | 168 µM |  | 
